Reference: ChEMBL document CHEMBL4311990, “Synthesis, biological activity, and mechanism of action of new 2-pyrimidinyl hydrazone and N-acylhydrazone derivatives, a potent and new classes of antileishmanial agents” (Eur J Med Chem, 2019)
Calls of active or inactive are those of the source. The rule behind the calls is not given here.

Key:
[1] = Cytotoxicity against sodium thioglycolate-stimulated BALB/c mouse peritoneal macrophages measured after 72 hrs; type: cell-based, Peritoneal macrophage
[2] = test system: Leishmania amazonensis; assay: Antileishmanial activity against GFP-expressing Leishmania amazonensis MHOM/BR/75/Josefa intracellular amastigotes infected in murine peritoneal macrophages incubated for 72 hrs by spectrofluorimetry analysis; type: functional, organism-based
[3] = test system: Leishmania amazonensis; assay: Antileishmanial activity against wild type Leishmania amazonensis IFLA/BR/67/PH8 promastigotes assessed as parasite viability incubated for 72 hrs by MTT assay; type: functional, organism-based; settings: IFLA/BR/67/PH8, 72 h
[4] = Selectivity index, ratio of CC50 for BALB/c mouse peritoneal macrophages to IC50 for GFP-expressing Leishmania amazonensis MHOM/BR/75/Josefa intracellular amastigotes infected in murine peritoneal macrophages; type: toxicity, cell-based; settings: read-out: Ratio CC50/IC50
[5] = test system: Leishmania amazonensis; assay: Induction of mitochondrial membrane depolarization in wild type Leishmania amazonensis IFLA/BR/67/PH8 promastigotes assessed as reduction in fluorescence intensity at 24.28 uM measured after 72 hrs by Mitotracker red staining based spectrofluorimetry analysis relative to control; type: functional; parameters: scale not given: the % may be the effect or the level left
[6] = test system: Leishmania amazonensis; assay: Induction of ROS generation in wild type Leishmania amazonensis IFLA/BR/67/PH8 promastigotes assessed as increase in ROS level by measuring fluorescence intensity at 48.56 uM measured after 24 hrs by H2DCFDA probe based fluorimetry analysis relative to control; type: functional
[7] = test system: Leishmania amazonensis; assay: Induction of mitochondrial membrane depolarization in wild type Leishmania amazonensis IFLA/BR/67/PH8 promastigotes assessed as reduction in ratio of […] at 24.28 uM measured after 72 hrs by JC-1 probe based spectrofluorimetry analysis relative to control; type: functional; parameters: scale not given: the % may be the effect or the level left
[8] = test system: Leishmania amazonensis; assay: Induction of change in plasma membrane integrity in wild type Leishmania amazonensis IFLA/BR/67/PH8 promastigotes assessed as increase in fluorescence intensity at 24.28 uM measured after 24 hrs by propidium iodide staining based spectrofluorimetry analysis relative to control; type: functional
[9] = test system: Leishmania amazonensis; assay: Induction of ROS generation in wild type Leishmania amazonensis IFLA/BR/67/PH8 promastigotes assessed as increase in ROS level by measuring fluorescence intensity at 24.28 uM measured after 24 hrs by H2DCFDA probe based fluorimetry analysis relative to control; type: functional
[10] = test system: Leishmania amazonensis; assay: Induction of mitochondrial membrane depolarization in wild type Leishmania amazonensis IFLA/BR/67/PH8 promastigotes assessed as reduction in fluorescence intensity at 48.56 uM measured after 72 hrs by Mitotracker red staining based spectrofluorimetry analysis relative to control; type: functional; parameters: scale not given: the % may be the effect or the level left
[11] = test system: Leishmania amazonensis; assay: Induction of change in plasma membrane integrity in wild type Leishmania amazonensis IFLA/BR/67/PH8 promastigotes assessed as increase in fluorescence intensity at 48.56 uM measured after 24 hrs by propidium iodide staining based spectrofluorimetry analysis relative to control; type: functional
[12] = test system: Leishmania amazonensis; assay: Induction of mitochondrial membrane depolarization in wild type Leishmania amazonensis IFLA/BR/67/PH8 promastigotes assessed as reduction in ratio of […] at 48.56 uM measured after 72 hrs by JC-1 probe based spectrofluorimetry analysis relative to control; type: functional; parameters: scale not given: the % may be the effect or the level left
[13] = test system: Leishmania amazonensis; assay: Induction of mitochondrial membrane depolarization in wild type Leishmania amazonensis IFLA/BR/67/PH8 promastigotes assessed as reduction in fluorescence intensity at 19.32 uM measured after 72 hrs by Mitotracker red staining based spectrofluorimetry analysis relative to control; type: functional; parameters: scale not given: the % may be the effect or the level left
[14] = test system: Leishmania amazonensis; assay: Induction of ROS generation in wild type Leishmania amazonensis IFLA/BR/67/PH8 promastigotes assessed as increase in ROS level by measuring fluorescence intensity at 9.66 uM measured after 24 hrs by H2DCFDA probe based fluorimetry analysis relative to control; type: functional
[15] = test system: Leishmania amazonensis; assay: Effect on plasma membrane integrity in wild type Leishmania amazonensis IFLA/BR/67/PH8 promastigotes assessed as increase in fluorescence intensity at 9.66 to 19.32 uM measured after 24 hrs by propidium iodide staining based spectrofluorimetry analysis; type: functional, organism-based
[16] = test system: Leishmania amazonensis; assay: Induction of ROS generation in wild type Leishmania amazonensis IFLA/BR/67/PH8 promastigotes assessed as increase in ROS level by measuring fluorescence intensity at 19.32 uM measured after 24 hrs by H2DCFDA probe based fluorimetry analysis relative to control; type: functional
[17] = test system: Leishmania amazonensis; assay: Induction of mitochondrial membrane depolarization in wild type Leishmania amazonensis IFLA/BR/67/PH8 promastigotes assessed as reduction in ratio of […] at 19.32 uM measured after 72 hrs by JC-1 based spectrofluorimetry analysis relative to control; type: functional; parameters: scale not given: the % may be the effect or the level left

IC50 [2] | SMILES | CC50 at 72 h [1] | IC50 [3] | selectivity ratio [4] | also measured
52.1 µM | Cc1ccc(/C=N/Nc2ncccn2)c(O)c1 | 54.8 µM | 56 µM | 1.05 | 
> 100 µM | O=C(N/N=C/c1ccccn1)c1ncccn1 | > 150 µM | > 100 µM | > 1.5 | 
14.5 µM | Oc1cccc(/C=N/Nc2ncccn2)c1O | > 150 µM | 7.95 µM | > 10.3 | 
57.9 µM | Oc1ccccc1/C=N/Nc1ncccn1 | 84.2 µM | 28.1 µM | 1.45 | 
4.07 µM | C(=N\Nc1ncccn1)/c1ccccn1 | 24.6 µM | 9.66 µM | 6.04 | Activity [13]: 30.27%; Activity [14]: 111.1%; Activity [15]: inactive; Activity [16]: 88.13%; Activity [17]: 10.97%

More lines, now with the values behind:

SMILES | IC50 [2] | CC50 at 72 h [1] | IC50 [3] | selectivity ratio [4] | also measured
O=[N+]([O-])c1ccc(O)c(/C=N/Nc2ncccn2)c1 | 10.1 µM | 23.8 µM | 10.5 µM | 2.36 | 
Oc1ccc(O)c(/C=N/Nc2ncccn2)c1 | 45.7 µM | 89.4 µM | 27.5 µM | 1.95 | 
O=C(N/N=C/c1ccccc1O)c1ncccn1 | > 100 µM | > 150 µM | 90 µM | > 1.5 | 
Cc1ccc(/C=N/NC(=O)c2ncccn2)c(O)c1 | 35.8 µM | > 150 µM | 52 µM | > 4.19 | 
O=C(N/N=C/c1cccc(O)c1O)c1ncccn1 | 33.9 µM | > 150 µM | 27.4 µM | > 4.42 | 
O=C(N/N=C/c1ccc([N+](=O)[O-])o1)c1ncccn1 | 10.8 µM | 29.1 µM | 24.3 µM | 2.68 | Activity [5]: 54.94%; Activity [6]: 74.11%; Activity [7]: 36%; Activity [8]: 82.9%; Activity [9]: 47.66%; Activity [10]: 55.48%; Activity [11]: 143%; Activity [12]: 49.75%
O=C(N/N=C/c1cc([N+](=O)[O-])ccc1O)c1ncccn1 | 69.1 µM | 63.4 µM | 29 µM | 0.91 | 
O=C(N/N=C/c1ccc(O)cc1O)c1ncccn1 | > 100 µM | > 150 µM | > 100 µM | > 1.5 | 
O=C(N/N=C/c1ccc([N+](=O)[O-])s1)c1ncccn1 | 8.41 µM | > 150 µM | > 100 µM | > 17.8 | 
O=C(N/N=C/c1cc(O)ccc1O)c1ncccn1 | 73.9 µM | > 150 µM | 39.3 µM | > 2.03 | 
CCCCCCCCCCCCCCCCOP(=O)([O-])OCC[N+](C)(C)C [MILTEFOSINE] | 4.05 µM | 132 µM |  | 32.6 | 
